Reference: patent publication US20060069132A1, “Azolecarboxamide herbicides” (priority 2004, published 2006)

Assays:
[1] = system: large crabgrass; assay: Test A pre-/postemergence herbicide test; assay type: in vivo, Digitaria sanguinalis
Outline: (§1)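 Visual injury rating on a 0–100 scale (0 no effect, 100 complete control) versus untreated controls, about ten days after treatment in greenhouse. Pre: directed soil spray onto seeded sandy loam. Post: spray to runoff on plants 2–10 cm tall at one- to two-leaf stage.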

[2] = system: redroot pigweed; assay: Test A pre-/postemergence herbicide test; assay type: in vivo, Amaranthus retroflexus
Outline: as §1

[3] = system: rice; assay: Test B pre-/postemergence herbicide test; assay type: in vivo, Oryza sativa; details: for Plant response rating, Rice: preemergence, 125 g ai/ha, 0 to 100 scale, 0 is no effect, 100 is complete control
Outline: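 Greenhouse pot assay with simultaneous preemergence (treated seed) and postemergence (2–18 cm seedlings) applications of surfactant-containing, non-phytotoxic solvent formulations. Response scored visually 13–15 days later on a 0–100 scale, 100 meaning complete control.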

[4] = system: giant foxtail; assay: Test C pre-/postemergence herbicide test; assay type: in vivo, Setaria faberi; details: for Foxtail, Giant plant response rating: 500 g ai/ha
Outline: (§2)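 Pre- and postemergence application, solvent/surfactant formulation; post at 1- to 4-leaf stage (2–18 cm). Greenhouse 12–14 d. Visual rating vs controls, 0 = no effect, 100 = complete control.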

[5] = system: goosegrass; assay: Test C pre-/postemergence herbicide test; assay type: in vivo, Eleusine indica; details: for Goosegrass plant response rating: 500 g ai/ha
Outline: as §2

[6] = system: lambsquarters; assay: Test C pre-/postemergence herbicide test; assay type: in vivo, Chenopodium album; details: for Lambsquarters plant response rating: 500 g ai/ha
Outline: as §2

[7] = system: pigweed; assay: Test C pre-/postemergence herbicide test; assay type: in vivo, Amaranthus retroflexus; details: for Pigweed plant response rating: 500 g ai/ha
Outline: as §2

[8] = system: rice; assay: Test C flooded paddy test; assay type: in vivo, Oryza sativa; details: for Plant response rating, Rice: 500 g ai/ha, visual rating after 12 to 14 days
Outline: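 Injury scored visually against controls on a 0 (no effect) to 100 (complete control) scale, 12 to 14 days after treatment in greenhouse. Flooded paddy plants treated at 2-leaf stage; postemergence plants at 1- to 4-leaf stage, 2 to 18 cm tall.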

[9] = system: barnyardgrass; assay: Test C flooded paddy test; assay type: in vivo, Echinochloa crus-galli; details: for Plant response rating, Barnyardgrass: 500 g ai/ha, visual rating after 12 to 14 days
Outline: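 Greenhouse test with a 12–14 day hold after application and visual comparison with controls. Emerged plants were 1- to 4-leaf stage (2–18 cm) when sprayed postemergence, and the paddy barnyardgrass was at 2 leaves under flooded conditions. 100 = complete control.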

[10] = Postemergence, 500 g ai/ha, 0 to 100 scale, 0 no effect, 100 complete control
[11] = Postemergence, 2000 g ai/ha, 0 to 100 scale, 0 no effect, 100 complete control
[12] = Preemergence, 500 g ai/ha, visual rating, 0 to 100 scale (0 no effect, 100 complete control)
[13] = Preemergence, 2000 g ai/ha, 0 to 100 scale, 0 no effect, 100 complete control
[14] = 125 g ai/ha, scale 0 (no effect) to 100 (complete control), visual, 12 to 14 days, preemergence
[15] = 250 g ai/ha, scale 0 to 100 (0 no effect, 100 complete control), visual, 12 to 14 days, preemergence
[16] = Postemergence, 125 g ai/ha, scale 0 to 100, 0 no effect, 100 complete control
[17] = Postemergence, 250 g ai/ha, scale 0 to 100, 0 no effect, 100 complete control
[18] = Preemergence, scale 0 to 100, 0 no effect, 100 complete control
[19] = postemergence, 62 g ai/ha, scale 0 to 100
[20] = 62 g ai/ha, scale 0 to 100 (0 no effect, 100 complete control)
[21] = 125 g ai/ha, scale of 0 to 100, 0 is no effect, 100 is complete control
[22] = 250 g ai/ha, scale of 0 to 100, 0 is no effect, 100 is complete control
[23] = scale 0 to 100 (0 no effect, 100 complete control)

CCNC(=O)c1cc(NC(=O)c2cc(C(C)(C)C)nn2CC)ccc1F [Compound 58]
Plant response rating, Crabgrass, Large [1, 10]: 40 | Plant response rating, Crabgrass, Large [1, 11]: 75 | Crabgrass, Large plant response rating [1, 12]: 70 | Crabgrass, Large plant response rating [1, 13]: 95 | Plant response rating, Pigweed [2, 10]: 70 | Plant response rating, Pigweed [2, 11]: 90 | Pigweed plant response rating [2, 12]: 100 | Pigweed plant response rating [2, 13]: 100 | Rice plant response rating ([3]; Preemergence, 500 g ai/ha, scale 0 to 100): 80 | Plant response rating, Rice [3]: 60 | Plant response rating (0 = no effect, 100 = complete control), Foxtail, Giant ([4]; 62 g ai/ha, preemergence): 70 | Plant response rating, Foxtail, Giant [4, 14]: 100 | Plant response rating, Foxtail, Giant [4, 15]: 100 | Foxtail, Giant plant response rating ([4]; Postemergence, scale 0 to 100): 40 | Plant response rating, Foxtail, Giant [4, 16]: 5 | Plant response rating, Foxtail, Giant [4, 17]: 20 | Foxtail, Giant plant response rating [4, 18]: 100 | Plant response rating, Foxtail, Giant [4, 19]: 0 | Plant response rating (0 = no effect, 100 = complete control), Goosegrass ([5]; 62 g ai/ha, preemergence): 90 | Plant response rating, Goosegrass [5, 14]: 95 | Plant response rating, Goosegrass [5, 15]: 95 | Goosegrass plant response rating ([5]; Postemergence, scale 0 to 100): 30 | Plant response rating, Goosegrass [5, 16]: 5 | Plant response rating, Goosegrass [5, 17]: 10 | Goosegrass plant response rating [5, 18]: 95 | Plant response rating, Goosegrass [5, 19]: 0 | Plant response rating (0 = no effect, 100 = complete control), Lambsquarters ([6]; 62 g ai/ha, preemergence): 100 | Plant response rating, Lambsquarters [6, 14]: 100 | Plant response rating, Lambsquarters [6, 15]: 100 | Lambsquarters plant response rating ([6]; Postemergence, scale 0 to 100): 90 | Plant response rating, Lambsquarters [6, 17]: 90 | Lambsquarters plant response rating [6, 18]: 100 | Plant response rating, Lambsquarters [6, 19]: 60 | Plant response rating (0 = no effect, 100 = complete control), Pigweed ([7]; 62 g ai/ha, preemergence): 100 | Plant response rating, Pigweed [7, 14]: 100 | Plant response rating, Pigweed [7, 15]: 100 | Pigweed plant response rating ([7]; Postemergence, scale 0 to 100): 85 | Plant response rating, Pigweed [7, 17]: 70 | Pigweed plant response rating [7, 18]: 100 | Plant response rating, Pigweed [7, 19]: 60 | Rice plant response rating [8, 20]: 0 | Rice plant response rating [8, 21]: 35 | Rice plant response rating [8, 22]: 35 | Plant response rating, Rice [8, 23]: 75 | Barnyardgrass plant response rating [9, 20]: 0 | Barnyardgrass plant response rating [9, 21]: 10 | Barnyardgrass plant response rating [9, 22]: 35 | Plant response rating, Barnyardgrass [9, 23]: 85

CCn1nc(C(C)(C)C)cc1C(=O)Nc1cccc2c1CCN(C1CC1)C2=O [Compound 64]
Plant response rating, Crabgrass, Large [1, 10]: 30 | Plant response rating, Crabgrass, Large [1, 11]: 60 | Crabgrass, Large plant response rating [1, 12]: 70 | Crabgrass, Large plant response rating [1, 13]: 100 | Plant response rating, Pigweed [2, 10]: 65 | Plant response rating, Pigweed [2, 11]: 95 | Pigweed plant response rating [2, 12]: 100 | Pigweed plant response rating [2, 13]: 100 | Plant response rating, Rice [3]: 0 | Plant response rating (0 = no effect, 100 = complete control), Foxtail, Giant ([4]; 62 g ai/ha, preemergence): 0 | Plant response rating, Foxtail, Giant [4, 14]: 0 | Plant response rating, Foxtail, Giant [4, 15]: 10 | Foxtail, Giant plant response rating [4, 18]: 80 | Plant response rating (0 = no effect, 100 = complete control), Goosegrass ([5]; 62 g ai/ha, preemergence): 0 | Plant response rating, Goosegrass [5, 14]: 10 | Goosegrass plant response rating [5, 18]: 70 | Plant response rating (0 = no effect, 100 = complete control), Lambsquarters ([6]; 62 g ai/ha, preemergence): 0 | Plant response rating, Lambsquarters [6, 14]: 0 | Lambsquarters plant response rating [6, 18]: 90 | Plant response rating (0 = no effect, 100 = complete control), Pigweed ([7]; 62 g ai/ha, preemergence): 30 | Plant response rating, Pigweed [7, 14]: 70 | Pigweed plant response rating [7, 18]: 100 | Rice plant response rating [8, 20]: 0 | Rice plant response rating [8, 21]: 0 | Rice plant response rating [8, 22]: 0 | Plant response rating, Rice [8, 23]: 15 | Barnyardgrass plant response rating [9, 20]: 0 | Barnyardgrass plant response rating [9, 21]: 0 | Barnyardgrass plant response rating [9, 22]: 0 | Plant response rating, Barnyardgrass [9, 23]: 35

CCCN1CCc2c(NC(=O)c3cc(C(C)(C)C)nn3CC)cccc2C1=O [Compound 65]
Plant response rating, Crabgrass, Large [1, 10]: 30 | Plant response rating, Crabgrass, Large [1, 11]: 60 | Crabgrass, Large plant response rating [1, 12]: 95 | Crabgrass, Large plant response rating [1, 13]: 100 | Plant response rating, Pigweed [2, 10]: 70 | Plant response rating, Pigweed [2, 11]: 70 | Pigweed plant response rating [2, 12]: 100 | Pigweed plant response rating [2, 13]: 100 | Plant response rating, Rice [3]: 10 | Plant response rating (0 = no effect, 100 = complete control), Foxtail, Giant ([4]; 62 g ai/ha, preemergence): 0 | Plant response rating, Foxtail, Giant [4, 14]: 0 | Plant response rating, Foxtail, Giant [4, 15]: 20 | Foxtail, Giant plant response rating [4, 18]: 60 | Plant response rating (0 = no effect, 100 = complete control), Goosegrass ([5]; 62 g ai/ha, preemergence): 0 | Plant response rating, Goosegrass [5, 14]: 30 | Goosegrass plant response rating [5, 18]: 80 | Plant response rating (0 = no effect, 100 = complete control), Lambsquarters ([6]; 62 g ai/ha, preemergence): 20 | Plant response rating, Lambsquarters [6, 14]: 95 | Lambsquarters plant response rating [6, 18]: 100 | Plant response rating (0 = no effect, 100 = complete control), Pigweed ([7]; 62 g ai/ha, preemergence): 70 | Plant response rating, Pigweed [7, 14]: 100 | Pigweed plant response rating [7, 18]: 100 | Rice plant response rating [8, 20]: 0 | Rice plant response rating [8, 21]: 0 | Rice plant response rating [8, 22]: 25 | Plant response rating, Rice [8, 23]: 30 | Barnyardgrass plant response rating [9, 20]: 0 | Barnyardgrass plant response rating [9, 21]: 0 | Barnyardgrass plant response rating [9, 22]: 30 | Plant response rating, Barnyardgrass [9, 23]: 60

CCOC(=O)c1cccc(NC(=O)c2cc(C(C)(C)C)nn2CC)c1C [Compound 88]
Crabgrass, Large plant response rating [1, 10]: 85 | Plant response rating, Crabgrass, Large [1, 11]: 95 | Crabgrass, Large plant response rating [1, 12]: 45 | Crabgrass, Large plant response rating [1, 13]: 100 | Pigweed plant response rating [2, 10]: 90 | Plant response rating, Pigweed [2, 11]: 100 | Pigweed plant response rating [2, 12]: 90 | Pigweed plant response rating [2, 13]: 100 | Plant response rating, Rice [3]: 20 | Plant response rating (0 = no effect, 100 = complete control), Foxtail, Giant ([4]; 62 g ai/ha, preemergence): 0 | Plant response rating, Foxtail, Giant [4, 14]: 50 | Plant response rating, Foxtail, Giant [4, 15]: 85 | Foxtail, Giant plant response rating [4, 18]: 100 | Plant response rating (0 = no effect, 100 = complete control), Goosegrass ([5]; 62 g ai/ha, preemergence): 60 | Plant response rating, Goosegrass [5, 14]: 90 | Goosegrass plant response rating [5, 18]: 100 | Plant response rating (0 = no effect, 100 = complete control), Lambsquarters ([6]; 62 g ai/ha, preemergence): 95 | Plant response rating, Lambsquarters [6, 14]: 95 | Lambsquarters plant response rating [6, 18]: 100 | Plant response rating (0 = no effect, 100 = complete control), Pigweed ([7]; 62 g ai/ha, preemergence): 100 | Plant response rating, Pigweed [7, 14]: 100 | Pigweed plant response rating [7, 18]: 100 | Rice plant response rating [8, 20]: 0 | Rice plant response rating [8, 21]: 0 | Rice plant response rating [8, 22]: 20 | Plant response rating, Rice [8, 23]: 45 | Barnyardgrass plant response rating [9, 20]: 0 | Barnyardgrass plant response rating [9, 21]: 0 | Barnyardgrass plant response rating [9, 22]: 15 | Plant response rating, Barnyardgrass [9, 23]: 45
